Like-named read-outs stand apart in the source and are kept apart here.
Tests used:
[1] = Delivery of lutein across chicken egg epithelial membrane with polyamine/amine carrier
Description: The membrane was washed in deionized water.
Lutein is a naturally occurring carotenoid that reduces the progression of age-related macular degeneration and cataracts. Lutein has a characteristic absorbance which can be measured using a plate reader, and thus it was not necessary to label the lutein with FAM. The absorbance of the solution which had crossed the membrane was measured and compared to the absorbance of the stock solution.

[2] = Delivery of fluorescent (FAM-tagged) peptide across chicken egg epithelial membrane with polyamine/amine carrier; conditions: fold versus control without carrier; Example 5
[3] = chicken, 60 seconds
[4] = Delivery of fluorescence-labelled bevacizumab across chicken egg epithelial membrane with polyamine/amine carrier; conditions: for amount of bevacizumab transported across the membrane compared to the control sample: fold versus control without carrier; for amount of bevacizumab transported across the membrane compared to the control sample / improvement in the amount of bevacizumab transported across the membrane: Example 5; for improvement in the amount of bevacizumab transported across the membrane: versus control without carrier
[5] = Delivery of fluorescence-labelled bevacizumab into the posterior segment of ex vivo porcine eyes; type: in vitro ADME; conditions: various incubation times
Description: Further tests on porcine eyes was carried out with fluorescence-labelled bevacizumab. […] The same methodology as described in Example 3 was used, but with various incubation times.

[6] = chicken, 60 seconds; remark: listed apart in the source
[7] = versus control without carrier, Example 5

Compound: NCCCNCCNCCCN [1,2-Bis(3-aminopropylamino)ethane]
- % peptide transported across membrane ([1]; chicken, 60 seconds): 22.0%
- amount of lutein transported across the membrane (bound stated in text) ([1]; chicken, 60 seconds): > 20%
- amount of peptide transported across the membrane compared with the control test [2]: twice as much peptide
- % peptide transported across membrane [3]: 14.1%

Compound: NCCCNCCCN [Bis(3-aminopropyl)amine]
- amount of bevacizumab transported across the membrane compared to the control sample [4]: more than twice as much
- amount of peptide transported across the membrane compared with the control test [2]: five times more peptide

Compound: CCN(CC)CC [Triethylamine]
- improvement in the amount of lutein transported across the membrane [1]: did not significantly improve
- % peptide transported across membrane ([1]; chicken, 60 seconds): 2.2%
- % peptide transported across membrane [3]: 7.1%

Compound: NCCCCN [Putrescine]
- % peptide transported across membrane ([1]; chicken, 60 seconds): 12.7%
- amount of lutein transported across the membrane (bound stated in text) ([1]; chicken, 60 seconds): > 5%
- % peptide transported across membrane [3]: 6.9%

Compound: NCCC(=O)N[C@@H](Cc1cnc[nH]1)C(=O)O [L-Carnosine]
- % peptide transported across membrane [1]: 7.4%
- amount of lutein transported across the membrane (bound stated in text) [1]: > 5%

Compound: NCCCNCCCCNCCCN [Spermine]
- effect of longer incubation time on amount of bevacizumab transported into the eye tissue [5]: did not result in higher delivery
- % peptide transported across membrane ([1]; chicken, 60 seconds): 27.8%
- amount of lutein transported across the membrane (bound stated in text) ([1]; chicken, 60 seconds): > 20%
- amount of peptide transported across the membrane compared with the control test [2]: twice as much peptide
- % peptide transported across membrane [3]: 28.1%

Compound: CC1=C[C@H](O)CC(C)(C)[C@H]1/C=C/C(C)=C/C=C/C(C)=C/C=C/C=C(C)/C=C/C=C(C)/C=C/C1=C(C)C[C@@H](O)CC1(C)C [lutein, Lutein, reference compound]
- lutein crossed the membrane ([1]; chicken, 60 seconds): about 6%
- lutein transported across the membrane ([1]; chicken, 60 seconds): 0.5%

Compound: CNCCCN [3-(Methylamino)propylamine]
- % peptide transported across membrane ([1]; chicken, 60 seconds): 6.5%
- amount of lutein transported across the membrane (bound stated in text) ([1]; chicken, 60 seconds): > 5%
- % peptide transported across membrane [3]: 3.4%

Compound: NCCN(CCN)CCN [Tris(2-aminoethyl)amine]
- % peptide transported across membrane [6]: 41.0%
- % peptide transported across membrane ([1]; chicken, 60 seconds): 4.7%
- % peptide transported across membrane [3]: 11.4%

Compound: N=C(N)N [Guanidine]
- % peptide transported across membrane [6]: 7.9%
- % peptide transported across membrane ([1]; chicken, 60 seconds): 8.0%
- amount of lutein transported across the membrane (bound stated in text) ([1]; chicken, 60 seconds): > 5%
- % peptide transported across membrane [3]: 4.0%

Compound: NCCCN [1,3-Diaminopropane]
- % peptide transported across membrane ([4]; Table 3, fluorescence-labelled bevacizumab with the named polyamine or amine moiety, methodology of Example 1): 4.4%
- improvement in the amount of bevacizumab transported across the membrane [4]: did not significantly improve
- % peptide transported across membrane ([1]; Table 2, lutein with the named polyamine or amine moiety, methodology of Example 1): 0.2%
- improvement in the amount of lutein transported across the membrane [1, 7]: did not significantly improve

Compound: CCCCNCCCC [Dibutylamine]
- % peptide transported across membrane ([1]; chicken, 60 seconds): 10.7%
- amount of lutein transported across the membrane (bound stated in text) ([1]; chicken, 60 seconds): > 5%
- % peptide transported across membrane [3]: 4.0%

Compound: NCCCCCN [Cadaverine]
- amount of bevacizumab transported across the membrane compared to the control sample [4]: more than twice as much

Compound: NCCCCNCCCN [Spermidine]
- effect of longer incubation time on amount of bevacizumab transported into the eye tissue [5]: increased with increasing incubation time
- % peptide transported across membrane ([1]; chicken, 60 seconds): 25.7%
- amount of lutein transported across the membrane (bound stated in text) ([1]; chicken, 60 seconds): > 20%
- amount of peptide transported across the membrane compared with the control test [2]: five times more peptide
- % peptide transported across membrane [3]: 22.3%

Compound: NC(N)=O [Urea]
- % peptide transported across membrane [1]: 1.7%

Compound: CC(C)N(CCN)C(C)C [N,N-Diisopropylethylenediamine]
- % peptide transported across membrane [6]: 3.3%
- % peptide transported across membrane ([1]; chicken, 60 seconds): 6.7%
- amount of lutein transported across the membrane (bound stated in text) ([1]; chicken, 60 seconds): > 5%
- % peptide transported across membrane [3]: 9.1%

Compound: CNCCN [N-Methylethylenediamine]
- % peptide transported across membrane [1]: 20.9%
- amount of lutein transported across the membrane (bound stated in text) [1]: > 20%

Compound: NCCNCCNCCNCCN [Tetraethylenepentamine]
- % peptide transported across membrane [6]: 28.8%
- % peptide transported across membrane ([1]; chicken, 60 seconds): 11.5%
- amount of lutein transported across the membrane (bound stated in text) ([1]; chicken, 60 seconds): > 5%
- % peptide transported across membrane [3]: 19.7%

Compound: NCCc1ccc(O)cc1 [Tyramine]
- % peptide transported across membrane [6]: 11.3%
- % peptide transported across membrane ([1]; chicken, 60 seconds): 14.1%
- amount of lutein transported across the membrane (bound stated in text) ([1]; chicken, 60 seconds): > 5%
- % peptide transported across membrane [3]: 5.8%

Compound: NCCN [Ethylenediamine]
- improvement in the amount of bevacizumab transported across the membrane [4]: did not significantly improve
- % peptide transported across membrane ([1]; chicken, 60 seconds): 2.3%
- improvement in the amount of lutein transported across the membrane [1, 7]: did not significantly improve
- % peptide transported across membrane [3]: 5.7%

Compound: NCCCNCCCNCCCN [N,N′-Bis(3-aminopropyl)-1,3-propanediamine]
- % peptide transported across membrane ([1]; chicken, 60 seconds): 19.5%
- amount of lutein transported across the membrane (bound stated in text) ([1]; chicken, 60 seconds): > 5%
- amount of peptide transported across the membrane compared with the control test [2]: five times more peptide
- % peptide transported across membrane [3]: 32.4%

— patent publication US20250281617A1, “Drug Delivery System” (The University of Birmingham, priority 2019, published 2025)
